One test has as its system RAW 264 cells. The experiment in a line: Growth/proliferation of RAW 264 cells in vitro. In kind it is cell-based, murine. The following applies: FIG. 6; 48 hours after treatment; proliferation in buffer = 100%. On the procedure: The effect of ISA on the growth of RAW 264 cells was determined. RAW 264 cells, which are derived from the murine macrophage cell lines, were plated at 2×10^4 cells per well in 24-well plates and allowed to grow for approximately 24 hours in DMEM. The cells were then treated with various compositions of the ISA drug, specifically, free ISA, the ISA−Ca^+2 salt, and ISA encapsulated in a nanoparticle (“ISA NP”). As discussed supra, the ISA NP contains Ca^+2 to lower the solubility of the bisphosphonate and increase its entrapment efficiency. For comparison purposes, the RAW 264 cells were also treated with blank NP, i.e., nanoparticles with no drug embedded therein. The cells were then analyzed 48 hours after treatment. Analysis included cell counting by Coulter counter and cell viability by tryphan blue exclusion assay.
The effect of ISA compositions on the growth of RAW 264 cells in vitro is illustrated in FIG. 6. The cell proliferation in buffer only was termed as 100%. The data represented is the mean with a ±SD (6≦N≦27).
The following formulations were evaluated: Ca^+2-ISA salt, Ca^+2-ISA salt+PVA, and Ca^+2-ISA adsorbed on the surface of a blank NP. The cell proliferation in the buffer only was termed as 100%. N.B., a lower column represents higher potency.

Test [1] deals with neointimal formation in balloon-injured rat carotid artery. Nature of the test: Rat carotid catheter (balloon) injury model of restenosis. In kind it is in vivo. Conditions: Example 2; 1.5 and 15 mg/kg day -1 and/or day +6; 14 days post injury; FIG. 4. As to the method:
Animals were obtained and housed in the animal facilities of the Faculty of Medicine, The Hebrew University of Jerusalem, conforming to the standards for care and use of laboratory animals of the Hebrew University of Jerusalem. Male rats of Sabra strain weighing 350-420 g were used. The animals were fed standard laboratory chow and tap water ad libitum. All in vivo experiments were conducted under general anaesthesia achieved with 80 mg/kg ketamine and 5 mg/kg xylazine administered IP.
The distal left common and external carotid arteries were exposed through a midline incision in the neck. […]
The slides were examined microscopically by an investigator blinded to the type of the experimental group. Six to eight sections in each slide were evaluated by computerized morphometric analysis and the averaged section data were further used as a representative of a whole slide for comparisons between groups. The residual lumen, the area bounded by the internal elastic lamina (original lumen), and the area circumscribed by the external elastic lamina (“total arterial area”) were measured directly. The degree of neointimal thickening was expressed as the ratio between the area of the neointimal and the original lumen (% stenosis), and as the ratio between the neointimal area to the area of the media (N/M). […]

The source of these data is patent publication US6984400B2, “Method of treating restenosis using bisphosphonate nanoparticles” (Yissum Research Development Company of the Hebrew …, priority 1998, dated 2006).

As for `Nc1nccc[n+]1CC(P(=O)([O-])O)P(=O)(O)O` (centres unmarked) [free ISA, 2-(2-aminopyrimidinio) ethylidene-1,1-bisphosphonic acid betaine], the “growth of RAW 264 cells” value in the test on RAW 264 cells is given as “only a minor effect”. Consider `O=P(O)(O)C(Cl)(Cl)P(=O)(O)O` [free clodronate in solution, (dichloromethylene) diphosphonic acid], for which, in test [1], the mean neointimal formation result is “marked neointimal formation”.
